# Reference: US20210145830A1, “MATERIALS AND METHODS FOR TREATING CANCER” (Mayo Foundation for Medical Education and Research, priority 2018, published 2021)
# Legend:
# Naïve T cells [1] = assay: Inhibitory receptor expression in stimulated naïve T cells; type: cell-based; conditions: PMA/Ionomycin
# Experimental: (§1) FIGS. 19A-F. A. Inhibitory receptors expression in naïve T cells after TCR activation with CD3 stimulation in the increasing dose of TP0903. Naïve T cells were incubated with anti CD3/CD28 beads at a 1 to 3 ratio in the presence of TP0903. At day 3, T cells were stained with PD-1, TIM-3, LAG-3, and ICOS. […] Teff cells were isolated by negative selection using Human T Cell Isolation Kit. Tregs were isolated by negative selection using the human CD4^+CD127^lowCD25^+ Treg isolation kit. Teff and Treg were stimulated with anti CD3/CD28 beads and 400 U/ml of IL-2. At day 5, total T cells were evaluated via CountBright quantification. C. CART19 cytokine assay in the presence TP0903. UTDs or CART19 were incubated with Jeko in the presence of TP-0903 at a 1 to 1 ratio. Supernatant was harvested and analyzed by 32-plex Luminex array after 3 days. D. Inhibitory receptors expression in CART19 cells in the presence TP0903. UTDs or CART19 were incubated with Jeko at a 1 to 1 E/T ratio in the presence of TP0903. At day 5, T cells were stained with PD-1 (left), LAG-3 (right), and TIM-3. […] Cell killing was assessed by luminescence at 24 hours. […]
# (§2) FIG. 21A-E. TP0903 modulates naïve T cells function upon stimulation of PMA/Ionomycin in vitro. […] At day 5, total T cells were evaluated via CountBright quantification.
# CART19 cells = assay: Th2/Th1 T cell subtype analysis during CART19 expansion; type: cell-based; conditions: irradiated JeKo-1; TP0903 10-30 nM; day 3
# Experimental: FIG. 22A-C. In vitro experiment for the combination of CART19 and TP0903. A. CART19 were cocultured at different effector-to-target ratio (E:T) with luciferase-positive JeKo-1. At 48 hours, cell killing was assessed by luminescence. […] The means and SEM are shown (**, p<0.005, *, p<0.05, one-way ANOVA analysis). n.s., not statistically significant. B. CART19 degranulation assay and cytokine production in the presence of TP0903. CART19 were cocultured with JeKo-1 for 4 hours in the presence of TP0903 doses of TP0903 (10-65 nM). […] C. Th2/Th1 T cell subtype analysis during CART19 expansion in the presence pf TP0903. CART19 cells were stimulated with lethally irradiated (120 Gy) JeKo-1 cell lines in the presence of increasing doses of TP0903 (10-30 nM). At the day 3, Th1 and Th2 cells were defined using CD4, CCR6, CCR4 and CXCR3 expression. […] The means and SEM are shown (*, p<0.05, one-way ANOVA analysis). n.s., not statistically significant.
# [2] = system: p-LCK, p38MAPK, GATA-3, T-bet in CART19 cells; assay: Western blot of signaling molecules in stimulated CART19 cells; type: cell-based
# Naïve T cells [3] = assay: Naïve T cell degranulation assay and cytokine production; type: cell-based; conditions: PMA/Ionomycin
# Experimental: FIG. 21A-E. TP0903 modulates naïve T cells function upon stimulation of PMA/Ionomycin in vitro. A. Naïve T cell proliferation assay in the presence of TP0903. Naïve T cells were stimulated with 5 ng/ml of PMA and 0.1 μg/ml of Ionomycin in the absence or in the increasing dose of TP0903 (10-65 nM) for 3 days. […] B. At the end of the expansion on day 3, T cells were stained with inhibitory receptors. […] C. Naïve T cell degranulation assay and cytokine production in the presence of TP0903. Naïve T cells were stimulated with 50 ng/ml of PMA and 1 μg/ml of Ionomycin for 4 hours in the presence of increasing doses of TP0903 (10-65 nM). […] D. Western blot analysis of p-LCK and GATA-3 inhibition by TP0903 in naïve T cells. Naïve T cells were stimulated with 5 ng/ml of PMA and 0.1 ug/ml of Ionomycin in the absence (DMSO) or in the increasing dose of TP0903 (10-65 nM) for 24 hours. […] was used as loading control. E. TP0903 specifically reduces regulatory T cells (Treg). Effector T cells (Teff) were isolated by negative selection using RoboSep™ Human T Cell Isolation Kit (Stemcell Technologies). Tregs were isolated by negative selection using the human CD4^+CD127^lowCD25^+ Treg isolation kit (Stemcell Technologies). Teff and Treg were stimulated with anti-CD3/CD28 beads and 400 U/ml of IL-2. At day 5, total T cells were evaluated via CountBright quantification.
# [4] = system: regulatory T cells (Treg); assay: Regulatory T cell expansion (anti-CD3/CD28 beads, IL-2); type: cell-based, human
# Experimental: as §1, §2
# [5] = stimulated CART cells (FIG. 18)
smiles,measurement,setting,value
CN1CCN(Cc2ccc(Nc3ncc(Cl)c(Nc4ccccc4S(=O)(=O)N(C)C)n3)cc2)CC1 [TP0903],"inhibitory receptors (PD-1, LAG-3, TIM-3, and ICOS)","Naïve T cells [1]; day 3, high dose TP0903",significantly downregulated
same,inhibitory receptors,Naïve T cells [1]; low dose TP0903,significant reduction
same,"Th1/Th2 phenotype (CD4, CCR6, CCR4, CXCR3)",CART19 cells,major shift toward Th1 phenotype
same,GATA-3,[2]; [5],reduction
same,P38,[2]; [5],reduction
same,P-JNK,[2]; [5],reduction
same,T-bet,[2]; [5],reduction
same,phospho LCK,"[2]; stimulated CART cells, dose dependent (FIG. 18)",increase
same,IL-4,"Naïve T cells [3]; 4 hours, increasing dose of TP0903 (10-65 nM)",significant inhibition
same,cytokine production (Th1 / Th2 cytokines),Naïve T cells [3]; low dose TP0903,favorably altered through the promotion of Th1 and reduction of Th2 cytokines
same,Treg expansion,"[4]; anti-CD3/CD28 beads + 400 U/ml IL-2, day 5",specifically reduced
same,Treg versus effector T cells,[4]; treated with TP0903 for 3 days,preferential reduction
